This test concerns the target T1, cholesteryl ester transfer protein (CETP) (Homo sapiens, UniProt P11597).
T1 construct: the source of CETP was human lipoprotein-deprived serum (LPDS); from tissue; host or cells: human lipoprotein-deprived serum (LPDS)
T1 sequence (P11597 18-493): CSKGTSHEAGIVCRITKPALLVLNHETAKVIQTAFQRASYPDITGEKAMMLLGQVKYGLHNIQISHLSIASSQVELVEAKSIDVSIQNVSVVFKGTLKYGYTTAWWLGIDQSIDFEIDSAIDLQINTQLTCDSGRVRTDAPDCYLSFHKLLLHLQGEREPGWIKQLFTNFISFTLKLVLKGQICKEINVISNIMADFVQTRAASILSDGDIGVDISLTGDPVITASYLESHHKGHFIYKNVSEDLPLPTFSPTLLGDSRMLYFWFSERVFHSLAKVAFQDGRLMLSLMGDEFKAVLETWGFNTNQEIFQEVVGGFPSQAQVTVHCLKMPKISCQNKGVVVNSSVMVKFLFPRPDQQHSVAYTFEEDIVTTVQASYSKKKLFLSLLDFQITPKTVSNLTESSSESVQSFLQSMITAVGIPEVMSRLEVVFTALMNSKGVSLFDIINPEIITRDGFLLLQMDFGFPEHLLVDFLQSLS
The test is described as follows: CETP inhibition SPA assay in the presence of plasma (CETP source human lipoprotein-deprived serum). Format: biochemical. Particulars: source of CETP human lipoprotein-deprived serum (LPDS), radiolabeled cholesteryl ester transfer HDL to LDL. The procedure: Activity of CETP inhibitors was determined using a buffer assay system. Partially purified CETP transferred radiolabeled cholesteryl ester from HDL donor particles to biotin-labeled LDL acceptor particles. The reaction was stopped by addition of streptavidin-coupled scintillation proximity assay (SPA) beads. These beads captured the biotinylated acceptor particles and transferred radioactivity was measured. The assay system was purchased and performed according to manufacturer's recommendations (Amersham Biosciences). Inhibitory activity of compounds was determined as percentage of positive control activity containing CETP together with donor and acceptor particles. Serial dilution of compounds was performed in order to determine the IC50 values.
Activity of the compounds was subsequently measured in the presence of plasma using the same assay as described above except that the source of CETP was human lipoprotein-deprived serum (LPDS). Inhibitory activity of compounds was determined as percentage of positive control activity containing all the assay components except compound. Serial dilution of compounds was performed in order to determine the IC50 values.
On to `O=C(c1cc(Cl)cc2cc[nH]c12)N(CCc1ccc(Cl)c(Cl)c1)Cc1cc2ccccc2o1` [Compound 1, 5-chloro-1H-indole-7-carboxylic acid benzofuran-2-ylmethyl-[2-(3,4-dichloro-phenyl)-ethyl]-amide], for which the IC50 was determined as 7.02 µM.
In the case of `CNc1cnc(Cl)cc1C(=O)N(CCc1ccc(Cl)c(Cl)c1)Cc1ccc(C(C)(C)C)nc1` [Compound 38, N-(6-tert-butyl-pyridin-3-ylmethyl)-2-chloro-N-[2-(3,4-dichloro-phenyl)-ethyl]-5-methylamino-isonicotinamide], the IC50 stood at 0.282 µM.
As for `CNc1ncc(Cl)cc1C(=O)N(CCc1cccc(C(F)(F)F)c1)Cc1ccc(C(C)(C)C)s1` [Compound 53, N-(5-tert-butyl-thiophen-2-ylmethyl)-5-chloro-2-methylamino-N-[2-(3-trifluoromethyl-phenyl)-ethyl]-nicotinamide], the figure is 0.056 µM.

The term IC50 denotes the concentration that gives 50% inhibition.

Values taken from patent US7674815B2, “Heteroaryl and benzyl amide compounds” (Hoffmann-La Roche Inc., priority 2006, dated 2010).
